Source: paper PMC7113684 (Antiviral Research, 2017)
Where a name gives a salt, the structure may show the parent alone.

Assays:
[1] = target: SARS-CoV 3CL^pro (Severe acute respiratory syndrome coronavirus, UniProt P0C6X7); settings: cited from earlier work
[2] = in vitro; settings: human
[3] = tested on: Huh-7 cells; settings: human

| Structure (SMILES) | activity against SARS-CoV 3CL^pro [1] | CC50 [2] | decrease of viability of mock cells [3] |
| --- | --- | --- | --- |
| CCOC(=O)/C=C/[C@H](C[C@@H]1CCNC1=O)NC(=O)[C@@H](CC(=O)[C@@H](NC(=O)c1cc(C)on1)C(C)C)Cc1ccc(F)cc1 [AG7088] | inactive |  |  |
| Nc1ccn([C@@H]2O[C@H](CO)[C@@H](O)C2(F)F)c(=O)n1 [GEM, Gemcitabine hydrochloride] |  | > 100 µM | ≥ 20% |
